Where two headings read alike, the source gives them in different places.
Experiment: Pharmacokinetic analyses in mice (PO suspension, IV, SC)
Type: in vivo, mouse
Conditions: in vivo
Method: Female CD-1 mice as above were fasted for 2 h prior, and 4 h after dosing. […] […], 3 mice from each group were euthanized by CO2 inhalation, blood was collected by cardiac puncture into K2EDTA collection tubes, and protein was precipitated and analysed by LC/MS-MS for plasma concentrations of MBX-4132. Data were analysed using WinNonLin.
[…] At 0.083, 0.5, 1, 4, 8 and 24 h post dose, blood was collected from 3 mice/group by tail vein or facial bleed into K2EDTA collection tubes, and protein was precipitated and analysed by LC/MS-MS for plasma concentrations of MBX-4132. Sampling was performed serially, with each mouse contributing sample at all time points. Data were analysed using WinNonLin.

[1] = female, CD-1, mouse, sc, 10 mg/kg, SC (10 mg/kg), mean of 3 animals, read-out: MBX 4132 Concentrations in Mouse Plasma, Mean
[2] = female, CD-1, mouse, sc, 10 mg/kg, SC (10 mg/kg), individual animals, read-out: MBX 4132 Concentrations in Mouse Plasma
[3] = female, CD-1, mouse, sc, 25 mg/kg, SC (25 mg/kg), individual animals, read-out: MBX 4132 Concentrations in Mouse Plasma
[4] = female, CD-1, mouse, sc, 25 mg/kg, SC (25 mg/kg), mean of 3 animals, read-out: MBX 4132 Concentrations in Mouse Plasma, Mean
[5] = mouse, iv, 10 mg/kg, IV (10 mg/kg), individual animals, read-out: MBX 4132 Concentrations in Mouse Plasma
[6] = mouse, iv, 10 mg/kg, IV (10 mg/kg), mean of 3 animals, read-out: MBX 4132 Concentrations in Mouse Plasma, Mean
[7] = mouse, po, 10 mg/kg, PO (10 mg/kg), mean of 3 animals, read-out: MBX 4132 Concentrations in Mouse Plasma, Mean
[8] = mouse, po, 10 mg/kg, PO (10 mg/kg), individual animals, read-out: MBX 4132 Concentrations in Mouse Plasma

SMILES: O=C(Nc1nnc(-c2ccc(F)cc2)o1)N1CCc2ccccc2C1 [MBX 4132]
- concentration at 8 h (female, CD-1, mouse, po, 10 mg/kg, PO (10 mg/kg susp.), mean of 3 animals, read-out: MBX 4132 Concentrations in Mouse Plasma, Mean): 9920 ng/mL
- concentration at 24 h (female, CD-1, mouse, po, 10 mg/kg, PO (10 mg/kg susp.), individual animals, read-out: MBX 4132 Concentrations in Mouse Plasma): < 62.5 ng/mL
- concentration at 0.083 h (female, CD-1, mouse, po, 10 mg/kg, PO (10 mg/kg), mean of 3 animals, read-out: MBX 4132 Concentrations in Mouse Plasma, Mean): 1260 ng/mL
- concentration at 0.083 h [1]: 786 ng/mL
- concentration at 0.5 h [2]: 3430 ng/mL
- concentration at 0.5 h [1]: 3780 ng/mL
- concentration at 1 h [2]: 3480 ng/mL
- concentration at 1 h [1]: 3350 ng/mL
- concentration at 4 h [2]: 3280 ng/mL
- concentration at 4 h [1]: 2850 ng/mL
- concentration at 8 h [2]: 2000 ng/mL
- concentration at 8 h [1]: 2430 ng/mL
- concentration at 24 h [2]: 599 ng/mL
- concentration at 24 h [1]: 608 ng/mL
- concentration at 0.083 h [3]: 1170 ng/mL
- concentration at 0.083 h [4]: 1510 ng/mL
- concentration at 0.5 h [4]: 5010 ng/mL
- concentration at 1 h [3]: 3020 ng/mL
- concentration at 1 h [4]: 4580 ng/mL
- concentration at 4 h [3]: 2380 ng/mL
- concentration at 4 h [4]: 3010 ng/mL
- concentration at 8 h [3]: 3420 ng/mL
- concentration at 8 h [4]: 4040 ng/mL
- concentration at 24 h [3]: 1540 ng/mL
- concentration at 24 h [4]: 1800 ng/mL
- concentration at 0.083 h [5]: 74600 ng/mL
- concentration at 0.083 h [6]: 66300 ng/mL
- concentration at 0.5 h [5]: 30600 ng/mL
- concentration at 0.5 h [6]: 32900 ng/mL
- concentration at 1 h [5]: 21000 ng/mL
- concentration at 1 h [6]: 21400 ng/mL
- concentration at 4 h [5]: 7790 ng/mL
- concentration at 4 h [6]: 7590 ng/mL
- concentration at 8 h [5]: 3920 ng/mL
- concentration at 8 h [6]: 3730 ng/mL
- concentration at 0.5 h [7]: 1360 ng/mL
- concentration at 1 h [8]: 1090 ng/mL
- concentration at 1 h [7]: 1440 ng/mL
- concentration at 4 h [8]: 1680 ng/mL
- concentration at 4 h [7]: 2170 ng/mL
- concentration at 8 h [8]: 4350 ng/mL
- concentration at 8 h [7]: 5110 ng/mL
- concentration at 24 h [7]: 58 ng/mL

Reference: paper PMC7979765, “trans-Translation inhibitors bind to a novel site on the ribosome and clear Neisseria gonorrhoeae in vivo” (Nature Communications, 2021)
